Measured values published in US20250367134A1, “PERIPHERALIZATION OF CENTRALLY-ACTING CANNABINOID-1 RECEPTOR ANTAGONISTS BY NANOPARTICLES FOR THE TREATMENT METABOLIC RELATED CONDITIONS” (Yissum Research Development Company of the Hebrew …, priority 2022, published 2025).
Structures can show the parent of a compound that is named as a salt.

Legend:
[1] = Chronic treatment of diet-induced obesity (DIO) mice: body weight, body composition, food intake, urine; type: in vivo; conditions: 1 mg/kg/d ip, 28 days
Text: The experimental protocol used was approved by the Institutional Animal Care and Use Committee of the Hebrew University, which is an AAALAC International accredited institute. To generate diet-induced obesity (DIO; body weight>42 g), six-week-old male C57B1/6JHsd mice (Envigo, Israel) were fed either a high-fat diet (HFD; 60% of calories from fat, 20% from protein, and 20% from carbohydrates; Research Diet, D12492), or a standard diet (STD; 14% fat, 24% protein, 62% carbohydrates; NIH-31 rodent diet) for 16 weeks. […] Body-weight and food intake were measured daily. Total body fat and lean masses were determined by EchoMRI100H™ (Echo Medical Systems LLC, Houston, TX, USA). At 24 h, urine was collected one week before euthanasia using mouse metabolic cages (CCS2000 Chiller System, Hatteras Instruments, NC, USA). Mice were euthanized by cervical dislocation under anesthesia, and the kidneys, brain, liver, fat pads, spleen, lungs, and heart were removed and weighed, and samples were either snap-frozen or fixed in buffered 4% formalin. Trunk blood was collected to determine the biochemical parameters.

[2] = Multi-parameter metabolic assessment (indirect calorimetry) in DIO mice; type: in vivo; conditions: 1 mg/kg/d ip, 28 days
Experimental: The metabolic and activity profiles of the mice were assessed using the Promethion High-Definition Behavioral Phenotyping System (Sable Instruments, Inc., Las Vegas, NV, USA). Data acquisition and instrument control were performed using MetaScreen software version 2.2.18.0, and the obtained raw data were processed using ExpeData version 1.8.4, using an analysis script detailing all aspects of the data transformation. Mice with free access to food and water were subjected to a standard 12 h light/12 h dark cycle, which consisted of a 16 h acclimation period, followed by 24 h of sampling. Respiratory gases were measured by using the GA-3 gas analyzer (Sable Systems, Inc., Las Vegas, NV, USA), using a pull-mode, negative-pressure system. Airflow was measured and controlled by FR-8 (Sable Systems, Inc., Las Vegas, NV, USA), with a set flow rate of 2000 mL/min. Water vapor was continuously measured and its dilution effect on O2 and CO2 was mathematically compensated. The effective mass (eff.Mass) was calculated by ANCOVA analysis. The respiratory quotient (RQ) was calculated as the ratio between CO2 produced to O2 consumed, and the total energy expenditure (TEE) was calculated as VO2×(3.815+1.232×RQ), normalized to the effective body mass, and expressed as kcal/h/kg^eff.Mass. Fat oxidation (FO) was calculated as FO=1.69×VO2−1.69×VCO2 and expressed as g/d/kgeff.Mass. Ambulatory activity and position were monitored simultaneously with the collection of the calorimetry data using XYZ beam arrays with a beam spacing of 0.25 cm.

[3] = Blood and liver biochemistry and histopathology in DIO mice; type: in vivo; conditions: 1 mg/kg/d ip, 28 days
Experimental: Serum levels of cholesterol, triglycerides, high-density lipoprotein (HDL), low-density lipoprotein (LDL), and alanine aminotransferase (ALT) were determined by using the Cobas C-111 chemistry analyzer (Roche, Switzerland). Serum insulin and leptin levels were measured by ELISAs (Merck, Cat #EZRMI-13K and #E6082-K, respectively). Fasting blood glucose was measured using a glucometer. Liver tissues were extracted as known, and their triglyceride content was determined using the Cobas C-111 chemistry analyzer (Roche, Switzerland).
Five μm paraffin-embedded liver sections from 7 animals per group were stained with H&E staining. Liver images were captured with a Zeiss AxioCam ICc5 color camera mounted on a Zeiss Axio Scope.A1 light microscope and taken from 10 random 40× fields of each animal. Lipid staining was conducted using an Oil Red O staining kit (Cat #ab150678; Abcam) according to the manufacturer's protocol. Briefly, at a […] optimal cutting temperature (O.C.T) (Cat #4583; SciGen, Inc., Gardena, CA, USA), compound-embedded liver sections were placed in propylene glycerol, followed by an Oil Red O solution and hematoxylin staining. Stained sections were photographed as mentioned above and positive red areas were quantified in a blinded manner using Image J software with a minimum of 10 random liver sections per mouse.

[4] = Glucose tolerance (ipGTT) and insulin sensitivity tests (ipIST) in DIO mice; type: in vivo; conditions: 1 mg/kg/d ip, 28 days
Experimental: Mice that underwent overnight fasting were injected with glucose (1.5 g/kg, ip), followed by a tail blood collection at 0, 15, 30, 45, 60, 90, and 120 minutes. The blood glucose levels were determined using a glucometer. The following day, the mice underwent fasting for 6 h before receiving insulin (0.75 U/kg, ip; Eli Lilly); their blood glucose levels were determined at the same intervals as above. The homeostasis model assessment insulin resistance (HOMA-IR) was calculated as ([μU/mL] X fasting plasma glucose [mmol/L]/22.5). The insulin sensitivity index (ISI) was calculated as 1/(glucose×insulin)×1000, with glucose expressed as mg/dL and insulin as mU/L.

[5] = test system: genes associated with fatty-acid β-oxidation (Cpta1, Acadm, Echs1, Hadh, and Acaa2); assay: CB1R antagonism in primary hepatocytes under lipotoxic conditions, qPCR; type: cell-based, mouse; conditions: 1 μM, 24 h, 0.5 mM O:P 2:1
Experimental: Total RNA of mouse livers or primary hepatocytes was extracted using TRIzol (Invitrogen), followed by DNase I treatment (Invitrogen), and then reverse-transcribed using an Iscript cDNA kit (Bio-Rad). Real-time PCR was conducted using iTaq Universal SYBR Green Supermix (Bio-Rad) and the CFX connect ST system (Bio-Rad). The following Mus musculus genes were detected: Cpta1, Acadm, Echs1, Hadh, and Acaa2; all genes were normalized to β-actin.
Primary mouse hepatocytes were isolated by liberase perfusion as previously described. Briefly, the liver of anesthetized mice was first perfused with calcium-free Hanks balanced salt solution supplemented with HEPES and EDTA (HBSS, Biological Industries, Beit HaEmek, Cat #02-018-1A HEPES Cat #03-025-1B), followed by perfused liberase digestion (25 μg/mL liberase in HBSS; Biological Industries, Beit HaEmek, Cat #02-015-1A with 25 mM HEPES). After digestion, the hepatocytes were released by dissociation from the lobes (centrifuged at 50×g for 2 min at 4° C.). The pellet from the first centrifugation of hepatocytes was loaded on a 90% Percoll gradient (Sigma-Aldrich; Cat #GE17-0891-01) and centrifuged at 200×g for 10 min at 4° C. […]

[6] = Biodistribution of rimonabant in HFD-fed obese mice after chronic 28-day treatment; type: in vivo; conditions: 18 hr following the last injection, 1 mg/kg ip, 28 days
Experimental: The NPs were suspended in 1×PBS (15-450 μg/mL), and the free drug was dissolved in 4% DMSO, 1% Tween 80, and saline (0.1-3.0 mg/mL). The mice were euthanized 1-, 4-, and 24-h post-injection. […] The mice were euthanized 18 h following the last injection. Blood was collected, and mice were perfused with 1×PBS (via the left ventricle until the effluent from the right atrium was clear of blood), and the brain, lungs, liver, kidneys, fat, and spleen were harvested.
Tissues and serum samples were processed as follows: Total proteins were precipitated with ice-cold acetone/Tris buffer (50 mM, pH 8.0). Then, the samples were homogenized in ice-cold methanol/Tris buffer (50 mM, pH 8.0, 1:1) containing AM251 10 μg/mL as an internal standard. […] Rimonabant levels in the samples were determined by liquid chromatography/tandem mass spectrometry (LC-MS/MS).
The analyses were conducted on a TSQ Quantum Access Max triple quadrupole mass spectrometer (Thermo Scientific, San Jose, CA, USA) coupled with an UHPLC system, which included a Dionex Pump and an Accela Autosampler (Thermo Scientific, San Jose, CA, USA). […] Rimonabant was detected in a positive ion mode using electron spray ionization (ESI) and the multiple reaction monitoring (MRM) mode of acquisition. […]

[7] = 10 mg/kg; cited from earlier work
[8] = 3 and 10 mg/kg; cited from earlier work
serum protein = conditions: cited from earlier work

Q: With `Cc1c(C(=O)NN2CCCCC2)nn(-c2ccc(Cl)cc2Cl)c1-c1ccc(Cl)cc1` [free rimonabant, N-(piperidin-1-yl)-5-(4-chlorophenyl)-1-(2,4-dichlorophenyl)-4-methyl-1H-pyrazole-3-carboxamide hydrochloride] as the molecule, how does the “body weight (overweightness)” value [1] read?
A: significantly reduced

Q: And the “fat mass (adiposity)” value [1]?
A: significantly reduced

Q: And the food intake [1]?
A: without affecting

Q: What about the lean mass [1] of the same molecule?
A: increased

Q: What about the “animal's activity profile” value [2] of the same molecule?
A: without affecting

Q: What about the “fat oxidation (FO)” value [2] of the same molecule?
A: upregulation

Q: What about the “oxygen consumption (VO2)” value [2] of the same molecule?
A: upregulation

Q: And the “total energy expenditure (TEE)” value [2]?
A: upregulation

Q: And the “HFD-induced fatty liver (liver weight, hepatic triglyceride content, hepatocyte ballooning, fat accumulation, serum ALT levels)” value [3]?
A: completely reversed

Q: And the serum leptin levels [3]?
A: significantly reduced

Q: And the HOMA-IR [4]?
A: reduced

Q: And the hyperinsulinemia [4]?
A: reduced

Q: And the insulin sensitivity [4]?
A: improved

Q: What about the obesity-induced glucose intolerance [4] of the same molecule?
A: reversed

Q: And the “expression levels of genes associated with fatty oxidation” value [5]?
A: significantly upregulated

Q: And the “levels of rimonabant in the brain” value [6]?
A: Comparable low levels

Q: And the “depressive-like symptoms in the Forced Swim Test” value [7]?
A: did not induce depressive-like symptoms

Q: And the “despair-like behavior in the Tail Suspension Test” value [8]?
A: did not induce despair-like behavior

Q: What about the serum protein binding (serum protein) of the same molecule?
A: > 98%
